Broadly, the pIC50 is the negative decadic logarithm of the IC50, by convention in mol/L.

pIC50: −log10 of the molar value. A value given as a limit tells only on which side of the number the result lay.

Here are results for 26 molecules from patent US11407757B2, “Heterocycle compounds as Tyro3, Axl and MerTK (TAM) family of receptor tyrosine kinase inhibitors” (Development Center for Biotechnology, priority 2017, dated 2022).

The target in experiment [1] is Mer kinase (Homo sapiens (Human), UniProt Q12866). In words: Mer kinase assay (AlphaScreen). To be noted: read-out: Mer kinase IC50; activity level class. Background: Alpha assays give light when donor and acceptor beads are brought close together.
Experiment [2] deals with Met kinase (Homo sapiens, UniProt P08581). In words: Met kinase assay (AlphaScreen). The class given is biochemical.
Experiment [3] concerns the target Axl kinase (Homo sapiens (Human), UniProt P30530). Put plainly: Axl kinase assay (AlphaScreen). The class given is biochemical. As to conditions: activity level class.

For `CCN(CC)S(=O)(=O)c1ccc(-c2c[nH]c3nc(Nc4ccc(CN5CCN(C)CC5)cc4)nc(OCCOC)c23)cc1` [Compound 86, N,N-diethyl-4-(4-(2-methoxyethoxy)-2-((4-((4-methylpiperazin-1-yl)methyl)phenyl)amino)-7H-pyrrolo[2,3-d]pyrimidin-5-yl)benzenesulfonamide], the pIC50 in experiment [1] was less than 6.00.

As for `COc1cc(-c2c[nH]c3nc(Nc4ccc(CN5CCC(C)CC5)cc4)nc(OC)c23)ccc1OCc1ccccc1` [Compound 44, 5-(4-(benzyloxy)-3-methoxyphenyl)-4-methoxy-N-(4-((4-methylpiperidin-1-yl)methyl)phenyl)-7H-pyrrolo[2,3-d] pyrimidin-2-amine], the pIC50 in experiment [1] was less than 6.00.

For the molecule `COCCOc1nc(Nc2ccc(CN3CCN(C)CC3)cc2)nc2[nH]cc(-c3ccc(S(=O)(=O)N4CCOCC4)cc3)c12` [Compound 88, 4-(2-methoxyethoxy)-N-(4-((4-methylpiperazin-1-yl)methyl)phenyl)-5-(4-(morpholinosulfonyl)phenyl)-7H-pyrrolo[2,3-d]pyrimidin-2-amine], in experiment [1], the pIC50 is less than 6.00.

With `COCCOc1nc(Nc2ccc(CN3CCN(C)CC3)cc2)nc2[nH]cc(-c3ccc(S(=O)(=O)N4CCCCC4)cc3)c12` [Compound 98, 4-(2-methoxyethoxy)-N-(4-((4-methylpiperazin-1-yl)methyl)phenyl)-5-(4-(piperidin-1-ylsulfonyl)phenyl)-7H-pyrrolo[2,3-d]pyrimidin-2-amine], the figures for the pIC50 in experiment [2], in experiment [1] and in experiment [3] were 6.00 to 6.40, less than 6.00 and greater than 7.52, respectively.

As for `COc1nc(Nc2ccc(CN3CCOCC3)cc2)nc2[nH]cc(-c3ccc(S(=O)(=O)N(C)C)cc3)c12` [Compound 7, 4-(4-methoxy-2-((4-(morpholinomethyl)phenyl)amino)-7H-pyrrolo[2,3-d]pyrimidin-5-yl)-N,N-dimethylbenzene-sulfonamide], the pIC50 in experiment [1] is less than 6.00.

Consider `COCCOc1nc(Nc2ccc(CN3CCN(C)CC3)cc2)nc2[nH]cc(-c3ccc(OCc4ccccc4)cc3F)c12` [Compound 90, 5-(4-(benzyloxy)-2-fluorophenyl)-4-(2-methoxyethoxy)-N-(4-((4-methylpiperazin-1-yl)methyl)phenyl)-7H-pyrrolo[2,3-d]pyrimidin-2-amine], for which, in experiment [1], the pIC50 was less than 6.00.

`COCCOc1nc(Nc2ccc(CN3CCN(C)CC3)cc2)nc2[nH]cc(-c3ccc(S(=O)(=O)N4CC(C)CC(C)C4)cc3)c12` (stereo not shown) [Compound 87, 5-(4-((3,5-dimethylpiperidin-1-yl)sulfonyl)phenyl)-4-(2-methoxyethoxy)-N-(4-((4-methylpiperazin-1-yl)methyl)phenyl)-7H-pyrrolo[2,3-d]pyrimidin-2-amine]: in experiment [1], the pIC50 was less than 6.00.

For `COCCOc1nc(Nc2ccc(CN3CCN(C)CC3)cc2)nc2[nH]cc(-c3ccc(S(=O)(=O)C(C)C)cc3)c12` [Compound 89, 5-(4-(isopropylsulfonyl)phenyl)-4-(2-methoxyethoxy)-N-(4-((4-methylpiperazin-1-yl)methyl)phenyl)-7H-pyrrolo[2,3-d]pyrimidin-2-amine], the pIC50 in experiment [1] was less than 6.00.

On to `COc1nc(Nc2ccc(CN3CCN(C)CC3)cc2)nc2[nH]cc(-c3ccc(OCc4ccccc4)cc3F)c12` [Compound 46, 5-(4-(benzyloxy)-2-fluorophenyl)-4-methoxy-N-(4-((4-methylpiperazin-1-yl)methyl)phenyl)-7H-pyrrolo[2,3-d]pyrimidin-2-amine], for which the pIC50 in experiment [1] was less than 6.00.

In turn, `COCCOc1nc(Nc2ccc(CN3CCN(C)CC3)cc2)nc2[nH]cc(-c3ccc(OCc4cccc(C)n4)cc3F)c12` [Compound 103, 5-(2-fluoro-4-((6-methylpyridin-2-yl)methoxy)phenyl)-4-(2-methoxyethoxy)-N-(4-((4-methylpiperazin-1-yl)methyl)phenyl)-7H-pyrrolo[2,3-d]pyrimidin-2-amine] had a pIC50 in experiment [3] greater than 7.52.

Turning to `COc1nc(Nc2ccc(CN3CCC(N)CC3)cc2)nc2[nH]cc(-c3ccc(S(=O)(=O)N(C)C)cc3)c12` [Compound 6, 4-(2-((4-((4-aminopiperidin-1-yl)methyl)phenyl)amino)-4-methoxy-7H-pyrrolo[2,3-d]pyrimidin-5-yl)-N,N-dimethylbenzene-sulfonamide], in experiment [1], the pIC50 was less than 6.00.

In experiment [3], `CCOc1nc(Nc2ccc(CN3CCN(C)CC3)cc2)nc2[nH]cc(-c3ccc(F)cc3F)c12` [Compound 59, 5-(2,4-difluorophenyl)-4-ethoxy-N-(4-((4-methylpiperazin-1-yl)methyl)phenyl)-7H-pyrrolo[2,3-d] pyrimidin-2-amine] gave a pIC50 greater than 7.52.

With `COc1nc(Nc2ccc(CN3CCC(C)CC3)cc2)nc2[nH]cc(-c3ccc(NC(=O)c4cc(C)n(C)n4)cc3)c12` [Compound 26, N-(4-(4-methoxy-2-((4-((4-methylpiperidin-1-yl)methyl)phenyl)amino)-7H-pyrrolo[2,3-d]pyrimidin-5-yl)phenyl)-1,5-dimethyl-7H-pyrazole-3-carboxamide], the pIC50 in experiment [1] is less than 6.00.

As to `COCCOc1nc(Nc2ccc(CN3CCN(C)CC3)cc2)nc2[nH]cc(-c3ccc(C(F)(F)F)cc3)c12` [Compound 84, 4-(2-methoxyethoxy)-N-(4-((4-methylpiperazin-1-yl)methyl)phenyl)-5-(4-(trifluoromethyl)phenyl)-7H-pyrrolo[2,3-d]pyrimidin-2-amine], in experiment [1], the pIC50 was less than 6.00.

`COCCOc1nc(Nc2ccc(CN3CCN(C)CC3)cc2)nc2[nH]cc(-c3ccc4c(cnn4C)c3)c12` [Compound 97, 4-(2-methoxyethoxy)-5-(1-methyl-7H-indazol-5-yl)-N-(4-((4-methylpiperazin-1-yl)methyl)phenyl)-7H-pyrrolo[2,3-d]pyrimidin-2-amine]: the pIC50 in experiment [3] is greater than 7.52.

Regarding `COCCOc1nc(Nc2ccc(CN3CCN(C)CC3)cc2)nc2[nH]cc(-c3ccc(OCc4ccccn4)cc3)c12` [Compound 110, 4-(2-methoxyethoxy)-N-(4-((4-methylpiperazin-1-yl)methyl)phenyl)-5-(4-(pyridin-2-ylmethoxy)phenyl)-7H-pyrrolo[2,3-d]pyrimidin-2-amine], the pIC50 in experiment [3] is greater than 7.52.

With `COCCOc1nc(Nc2ccc(CN3CCN(C)CC3)cc2)nc2[nH]cc(-c3ccc(OCc4ncccn4)cc3F)c12` [Compound 107, 5-(2-fluoro-4-(pyrimidin-2-ylmethoxy)phenyl)-4-(2-methoxyethoxy)-N-(4-((4-methylpiperazin-1-yl)methyl)phenyl)-7H-pyrrolo[2,3-d]pyrimidin-2-amine], the pIC50 in experiment [3] is greater than 7.52.

For the molecule `COc1nc(Nc2ccc(CN3CCN(C)CC3)cc2)nc2[nH]cc(-c3ccc(O)cc3)c12` [Compound 17, 4-(4-methoxy-2-((4-((4-methylpiperazin-1-yl)methyl)phenyl)amino)-7H-pyrrolo [2,3-d]pyrimidin-5-yl)phenol], the pIC50 in experiment [3] was greater than 7.52.

For `COCCOc1nc(Nc2ccc(CN3CCN(C)CC3)cc2)nc2[nH]cc(-c3ccc(S(=O)(=O)N4CCN(C)CC4)cc3)c12` [Compound 102, 4-(2-methoxyethoxy)-N-(4-((4-methylpiperazin-1-yl)methyl)phenyl)-5-(4-((4-methylpiperazin-1-yl)sulfonyl)phenyl)-7H-pyrrolo[2,3-d]pyrimidin-2-amine], in experiment [1], the pIC50 is less than 6.00.

Take `COCCOc1nc(Nc2ccc(CN3CCN(C)CC3)cc2)nc2[nH]cc(-c3ccc(S(=O)(=O)N(C)C)cc3)c12` [Compound 79, 4-(4-(2-methoxyethoxy)-2-((4-((4-methylpiperazin-1-yl)methyl)phenyl)amino)-7H-pyrrolo[2,3-d]pyrimidin-5-yl)-N,N-dimethylbenzene-sulfonamide]: the pIC50 in experiment [3] was greater than 7.52.

For the molecule `COCCOc1nc(Nc2ccc(CN3CCN(C)CC3)cc2)nc2[nH]cc(-c3ccc(S(=O)(=O)N(C)C)cc3F)c12` [Compound 91, 3-fluoro-4-(4-(2-methoxyethoxy)-2-((4-((4-methylpiperazin-1-yl)methyl)phenyl)amino)-7H-pyrrolo[2,3-d]pyrimidin-5-yl)-N,N-dimethylbenzene-sulfonamide], the negative-log IC50 (pIC50) in experiment [3] is greater than 7.52.

In experiment [3], `CCNc1nc(Nc2ccc(CN3CCN(C)CC3)cc2)nc2[nH]cc(-c3ccc(F)cc3F)c12` [Compound 54, 5-(2,4-difluorophenyl)-N4-ethyl-N2-(4-((4-methylpiperazin-1-yl)methyl)phenyl)-7H-pyrrolo[2,3-d] pyrimidine-2,4-diamine] showed a pIC50 greater than 7.52.

For `COCCOc1nc(Nc2ccc(CN3CCC(C)CC3)cc2)nc2[nH]cc(-c3ccc(OCc4ncccc4C)cc3F)c12` [Compound 111, 5-(2-fluoro-4-((3-methylpyridin-2-yl)methoxy)phenyl)-4-(2-methoxyethoxy)-N-(4-((4-methylpiperidin-1-yl)methyl)phenyl)-7H-pyrrolo[2,3-d]pyrimidin-2-amine], in experiment [3], the pIC50 is greater than 7.52.

Turning to `COCCOc1nc(Nc2ccc(CN3CCN(C)CC3)cc2)nc2[nH]cc(-c3ccc(OCc4cnccc4OC)cc3F)c12` [Compound 99, 5-(2-fluoro-4-((4-methoxypyridin-3-yl)methoxy)phenyl)-4-(2-methoxyethoxy)-N-(4-((4-methylpiperazin-1-yl)methyl)phenyl)-7H-pyrrolo[2,3-d]pyrimidin-2-amine], the pIC50 in experiment [1] was less than 6.00.

Molecule `COCCOc1nc(Nc2ccc(CN3CCC(C)CC3)cc2)nc2[nH]cc(-c3ccc(NS(=O)(=O)c4cc(F)ccc4F)cc3)c12` [Compound 3, 2,5-difluoro-N-(4-(4-(2-methoxyethoxy)-2-((4-((4-methylpiperidin-1-yl)methyl)phenyl)amino)-7H-pyrrolo[2,3-d]pyrimidin-5-yl)phenyl)benzene-sulfonamide] showed a pIC50 in experiment [3] greater than 7.52.

Consider `COc1ccc(-c2c[nH]c3nc(Nc4ccc(CN5CCN(C)CC5)cc4)nc(OC)c23)cc1` [Compound 20, 4-methoxy-5-(4-methoxyphenyl)-N-(4-((4-methylpiperazin-1-yl)methyl)phenyl)-7H-pyrrolo[2,3-d] pyrimidin-2-amine], for which the pIC50 in experiment [1] is less than 6.00.
